Measurements reported in patent US12329758B2, “Methods for the treatment of psoriatic arthritis” (Alfasigma S.p.A., priority 2018, dated 2025).
Where two headings read alike, the source gives them in different places.

Key:
[1] = system: enthesitis in PsA patients; test: Phase 2 clinical study NCT03101670, enthesitis by Leeds Enthesitis Index (LEI); format: in vivo, human; conditions: for LEI score (change from baseline): 200 mg q.d.
Source text: As used herein, the term ‘Leeds Enthesitis Index’ or ‘LEI’ refers to a clinical scoring after examination of (entheseal) tenderness at six sites: 2 sites at each of the lateral epicondyles of the humerus, medial condyles of the femur and the insertion of the Achilles tendon. The LEI score range is 0-6. The higher the score, the higher the enthesitis burden.
(§1) This is a multicenter, Phase 2, double-blind, placebo-controlled study in subjects with moderately to severely active PsA who have an inadequate response or are intolerant to conventional disease-modifying therapy. […] Randomization to treatment groups are stratified by current cDMARD use (yes or no) and prior anti-TNF pharmaceutical use (yes or no).
In addition to the 16 sites used to assess enthesitis when evaluating the SPARCC Enthesitis Index, medial femoral condyles (left and right) is also assessed and evaluated in a similar way as the other 16 sites to allow assessing the Leeds enthesitis index (LEI).
Enthesitis is assessed using the SPARCC Enthesitis Index and Leeds Enthesitis Index (LEI). The Enthesitis parameters are analyzed only in the subpopulation of subjects who have enthesitis at baseline (LEI >0). Analysis focusses on the changes from baseline.

[2] = system: moderately to severely active PsA; test: Phase 2 clinical study NCT03101670, physical function (HAQ-DI); format: in vivo, human; conditions: 200 mg q.d.
Source text: As used herein, the term 'HAQ-ID' refers to the Health Assessment Questionnaire […] Disability Index, which is a measure for the physical functioning of a patient. The HAQ-DI is a 20-question instrument assessing the degree of difficulty a person has in accomplishing tasks in 8 function areas (B. Bruce and J. Fries, “The Stanford Health Assessment Questionnaire: dimensions and practical applications,” Health Qual Life Outcomes, p. 1:20, 2003). The HAQ-DI total score ranges from 0 to 3 with higher scores indicating greater dysfunction. This is a multicenter, Phase 2, double-blind, placebo-controlled study in subjects with moderately to severely active PsA who have an inadequate response or are intolerant to conventional disease-modifying therapy. […] Randomization to treatment groups are stratified by current […] use (yes or no) and prior anti-TNF pharmaceutical use (yes or no). The HAQ-DI is used to monitor the subject's self-assessed physical function or disability. This 20-question instrument assesses the degree of difficulty a person has in accomplishing tasks in 8 function areas (getting dressed, arising, eating, walking, […], hygiene, reaching, gripping, errands and chores). Responses are scored on a 4-point Likert scale from 0, indicating no difficulty, to 3, indicating inability to perform a task in that area. The need for aids/devices or help from another person is also recorded. The HAQ-DI total score ranges from 0 to 3 with higher scores indicating greater dysfunction. HAQ-DI is scored on a scale from 0 to 3 and changes from baseline are reported. A decrease by at least 0.22 points versus the baseline is considered clinically meaningful.

[3] = system: moderately to severely active PsA; test: Phase 2 clinical study NCT03101670, ACR20/50/70 response; format: in vivo, human; conditions: for ACR20 / ACR50 / ACR70: 200 mg q.d.
Source text: For the purpose of the present invention, the terms “ACR20”, “ACR50” and “ACR70” as used herein are scores which indicate how much a patient's symptoms of peripheral arthritis have improved according to criteria set out by the American College of Rheumatology (ACR). The ACR score represents a percentage. An ACR20 score means that a person's arthritis symptoms have improved by 20%, an ACR50 score means it has improved by 50%, and an ACR70 score means it has improved by 70%. Specifically, to qualify for an ACR20 score, a person must have at least 20% fewer tender joints (at least 20% improvement from baseline in tender joint counts, TJC68) and at least 20% fewer swollen joints (at least 20% improvement from baseline in swollen joint counts, SJC66). In addition the patient must show a 20% improvement in at least three of the following five areas: the person's overall (global) assessment of his or her own disease activity (on a 0-100 mm visual analog scale (VAS)), the physician's global assessment of the person's disease activity (on a 0-100 mm VAS), the person's assessment of his or her own PsA pain intensity (on a 0-100 mm VAS), the person's assessment of his or her own physical functioning as measured by HAQ-DI, and the results of a C-reactive protein (CRP) blood test (in mg/dL or mg/L). ACR50 and ACR70 scores use the same criteria but require 50% and 70% improvement, respectively.
as §1
Efficacy assessments to estimate signs and symptoms of PsA and peripheral arthritis, psoriasis, enthesitis, dactylitis, spondylitis, and physical function are carried out at Baseline (Day 1) and at Weeks 1, 2, 4, 8, 12, 16, or at the early discontinuation visit (EDV) if applicable, unless otherwise noted. The individual components of the ACR response criteria are obtained at screening and throughout the study.
The patient's assessment of pain is performed using a 0-100 mm VAS ranging from “no pain” to “unbearable pain” after the question “Please indicate with a vertical mark (|) through the horizontal line the most pain you had from your psoriatic arthritis today”. The length of the line from 0 to the patient's mark is recorded. This assessment should be completed before the joint examination. This pain score is also used to derive the ACR20/50/70.
The signs and symptoms of peripheral arthritis are measured using ACR20/50/70. The ACR response is a measurement of improvement in multiple disease assessment criteria.
A positive ACR20 response is defined as at least 20% improvement from baseline in both swollen (SJC66) and tender (TJC68) joint counts, and at least 20% improvement in 3 or more of the following 5 criteria: • Patient's Global Assessment of Disease Activity (0-100 mm VAS) • Physician's Global Assessment of Disease Activity (0-100 mm VAS) • Patient's Global Assessment of PsA pain intensity (0-100 mm VAS) • Patient's assessment of physical function as measured by HAQ-DI • CRP in mg/dL or mg/L
A positive ACR50 and ACR70 response is derived from the definition of the ACR20, but requiring at least 50% and 70% improvement, respectively.

[4] = system: psoriasis in PsA subjects with ≥3% BSA at baseline; test: Phase 2 clinical study NCT03101670, psoriasis (PASI); format: in vivo, human; conditions: 200 mg q.d.
Source text: As used herein, the term ‘PASI’ refers to the Psoriasis Area and Severity Index score and is an index used to express the severity of psoriasis. It combines the severity (erythema, induration and desquamation) and percentage of affected area. Further details on the determination of PASI is provided in example 1. The PASI score represents the change from baseline. ‘PASI50’ refers to the portion of patients who achieved 50% improvement in the PASI score upon the tested treatment. ‘PASI75’ refers to the portion of patients who achieved 75% improvement in the PASI score upon the tested treatment. ‘PASI90’ refers to the portion of patients who achieved 90% improvement in the PASI score upon the tested treatment.
as §1
The PASI score is used to measure the severity and extent of psoriasis. Representative area of psoriasis is selected for each body region (head, arms, trunk and legs). The intensity of erythema, induration and desquamation of the psoriasis is assessed as none (0), mild (1), moderate (2), severe (3) or very severe (4).
A numerical score, ranging from 0 to 100%, will be used to measure the proportion of the subject's total BSA involved with psoriasis, as assessed by the investigator.
Four sites of affection, the head (h), upper limb (u), trunk (t) and lower limbs (l), are separately scored by using 3 parameters, erythema (E), induration (I) and desquamation (D), each of which is graded on a severity scale of 0 to 4 (0=none, 1=mild, 2=moderate, 3=severe and 4=very severe) (Section 1.4.6). The area-wise percentage involvement of the involved sites is calculated as: 1=less than 10% area; 2=10-29%; 3=30-49%; 4=50-69%; 5=70-89%; and 6=more than 90%. The final formula for PASI score is: PASI=0.1×(Eh+Ih+Dh)×Ah+0.2×(Eu+Iu+Du)×Au+0.3×(Et+It+Dt)×At+0.4×(El+Il+Dl)×Al
The total PASI score ranges between 0 (no disease) and 72 (maximal disease), but is considered unreliable when BSA <3%. Therefore, the PASI is only analysed in the subpopulation of subjects with psoriasis involving ≥3% BSA at baseline.
The following PASI parameters can be derived: • PASI change from baseline • PASI 50% improvement (PASI50) • PASI 75% improvement (PASI75) • PASI 90% improvement (PASI90) • PASI 100% improvement or complete resolution of all disease (PASI100)

[5] = system: enthesitis in PsA patients; test: Phase 2 clinical study NCT03101670, enthesitis by SPARCC Enthesitis Index; conditions: human, in vivo
Experimental: As used herein, the term ‘SPARCC Enthesitis Index’ refers to a clinical scoring after examination of (entheseal) tenderness at 16 peripheral sites, which are evaluated for tenderness by palpation, and scored 0 (non-tender) or 1 (tender). The total enthesitis score is the sum of all site scores and is maximally 16. The higher the score, the higher the enthesitis burden. (Maksymowych W P et al. Development and validation of the Spondyloarthritis Research Consortium of Canada (SPARCC) Enthesitis Index. Ann Rheum Dis 2009; 68:948-53)
as §1
Enthesitis is assessed using the SPARCC Enthesitis Index. Sixteen body sites is evaluated for tenderness by palpation, and scored with 0 (non-tender) or 1 (tender). The total enthesitis score is the sum of all site scores and is maximally 16. The higher the score, the higher the enthesitis burden.
Enthesitis is assessed using the SPARCC Enthesitis Index and Leeds Enthesitis Index (LEI). The Enthesitis parameters are analyzed only in the subpopulation of subjects who have enthesitis at baseline (LEI >0). […]

[6] = system: moderately to severely active PsA; test: Phase 2 clinical study NCT03101670, Minimal Disease Activity (MDA); format: in vivo, human; conditions: 200 mg q.d.
Source text: As used herein, the term ‘MDA’ refers to the Minimal Disease Activity, which is a measure for disease remission. For the purpose of the present invention a patient will be classified as having achieved MDA when 5 out of 7 of the following criteria are met: • TJC68 ≤1 • SJC66 ≤1 • PASI ≤1 or BSA ≤3% • Patient's Global Assessment of PsA pain intensity score ≤15 (0-100 mm VAS) • Patient's Global Assessment of Disease Activity ≤20 (0-100 mm VAS) • HAQ-DI ≤0.5 • SPARCC Enthesitis Index ≤1.
as §1
The disease activity in PsA will be measured using the MDA, which is a measure to indicate disease remission. The MDA is based on a composite score of 7 domains. A patient will be classified as having achieved MDA when 5 out of 7 of the following criteria are met: • TJC68 ≤1 • SJC66 ≤1 • PASI ≤1 or BSA ≤3% • Patient's Global Assessment of PsA pain intensity score ≤15 (0-100 mm VAS) • Patient's Global Assessment of Disease Activity ≤20 (0-100 mm VAS) • HAQ-DI ≤0.5 • SPARCC Enthesitis Index ≤1

[7] = abundance of the metabolite relative to the parent compound in humans; format: in vivo, human; conditions: relative to compound I
Source text: (§2) Though the potency of this metabolite is lower than the parent molecule, the overall exposure and peak plasma concentration in humans is higher than seen in all tested animal species. As a consequence, dedicated pharmacology and toxicology studies have been performed with compound II. […] The compound according to formula II is described in WO2013/189771.

[8] = target: JAK1 (Homo sapiens, UniProt P23458); test: inhibition of JAK1 signaling by the metabolite relative to the parent; conditions: relative to compound I
Source text: as §2

[9] = system: active psoriatic arthritis; conditions: cited from earlier work
[10] = W12, subjects with ≥3% BSA at baseline
[11] = W16, subjects with ≥3% BSA at baseline

JAK1, sequence (P23458 whole entry, species assumed): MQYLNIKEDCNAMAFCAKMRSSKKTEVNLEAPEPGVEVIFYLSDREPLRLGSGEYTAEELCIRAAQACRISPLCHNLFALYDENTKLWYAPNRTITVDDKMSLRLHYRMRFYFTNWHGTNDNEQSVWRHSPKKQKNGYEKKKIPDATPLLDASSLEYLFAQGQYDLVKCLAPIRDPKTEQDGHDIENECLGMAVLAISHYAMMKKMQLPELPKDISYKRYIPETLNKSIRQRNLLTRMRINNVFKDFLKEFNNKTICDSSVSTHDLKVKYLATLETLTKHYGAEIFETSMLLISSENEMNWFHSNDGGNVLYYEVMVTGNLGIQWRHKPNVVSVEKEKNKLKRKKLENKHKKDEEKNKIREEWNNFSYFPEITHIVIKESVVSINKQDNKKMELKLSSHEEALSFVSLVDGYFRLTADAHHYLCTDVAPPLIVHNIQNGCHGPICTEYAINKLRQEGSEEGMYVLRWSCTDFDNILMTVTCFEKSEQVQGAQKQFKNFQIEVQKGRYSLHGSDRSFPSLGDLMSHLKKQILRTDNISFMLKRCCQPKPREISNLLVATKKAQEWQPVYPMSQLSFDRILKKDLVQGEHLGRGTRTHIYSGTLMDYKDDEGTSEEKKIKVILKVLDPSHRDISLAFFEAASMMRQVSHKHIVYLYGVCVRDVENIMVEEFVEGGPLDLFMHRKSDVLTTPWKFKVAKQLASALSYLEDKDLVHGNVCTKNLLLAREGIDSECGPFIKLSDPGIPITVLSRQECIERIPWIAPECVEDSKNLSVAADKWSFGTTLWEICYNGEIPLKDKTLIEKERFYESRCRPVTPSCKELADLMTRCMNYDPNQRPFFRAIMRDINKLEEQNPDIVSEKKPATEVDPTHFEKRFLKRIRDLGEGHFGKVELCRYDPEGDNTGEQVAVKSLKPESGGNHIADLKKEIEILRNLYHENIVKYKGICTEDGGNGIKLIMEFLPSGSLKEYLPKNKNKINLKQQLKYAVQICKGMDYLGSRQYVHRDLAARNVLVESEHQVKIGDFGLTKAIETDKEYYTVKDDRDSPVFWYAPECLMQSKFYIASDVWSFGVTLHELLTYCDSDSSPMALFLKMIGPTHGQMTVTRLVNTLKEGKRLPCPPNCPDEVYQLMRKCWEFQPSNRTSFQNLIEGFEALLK

O=C(Nc1nc2cccc(-c3ccc(CN4CCS(=O)(=O)CC4)cc3)n2n1)C1CC1 [compound I, cyclopropanecarboxylic acid {5-[4-(1,1-dioxo-thiomorpholin-4-ylmethyl)-phenyl]-[1,2,4]triazolo[1,5-a]pyridin-2yl}-amide]
LEI score (change from baseline) ([1]; Week 4, enthesitis at baseline (LEI >0)): −1.7
LEI score (change from baseline) ([1]; Week 8, enthesitis at baseline (LEI >0)): −2.1
LEI score (change from baseline) ([1]; Week 12, enthesitis at baseline (LEI >0)): −1.9
LEI score (change from baseline) ([1]; Week 16, enthesitis at baseline (LEI >0)): −1.8
Enthesitis resolved per LEI, treatment difference versus placebo ([1]; patients with enthesitis at baseline): 26%
HAQ-DI (change from baseline) ([2]; Week 1): −0.19
HAQ-DI (change from baseline) ([2]; Week 2): −0.30
HAQ-DI (change from baseline) ([2]; Week 4): −0.44
HAQ-DI (change from baseline) ([2]; Week 8): −0.50
HAQ-DI (change from baseline) ([2]; Week 12): −0.53
HAQ-DI (change from baseline) ([2]; Week 16): −0.57
ACR20 ([3]; Week 1): 26.2%
ACR50 ([3]; Week 1): 6.2%
ACR70 ([3]; Week 1): 1.5%
ACR20 ([3]; Week 2): 33.8%
ACR50 ([3]; Week 2): 10.8%
ACR70 ([3]; Week 2): 3.1%
ACR20 ([3]; Week 4): 61.5%
ACR50 ([3]; Week 4): 20.0%
ACR70 ([3]; Week 4): 7.7%
ACR20 ([3]; Week 8): 67.7%
ACR50 ([3]; Week 8): 32.3%
ACR70 ([3]; Week 8): 12.3%
ACR20 ([3]; Week 12): 83.1%
ACR50 ([3]; Week 12): 41.5%
ACR70 ([3]; Week 12): 10.8%
ACR50 ([3]; Week 16): 47.7%
ACR70 ([3]; Week 16): 23.1%
ACR20 and ACR50 difference from placebo ([3]; as from week 1): statistically significant difference from placebo
difference in ACR20, ACR50 and ACR70 score versus placebo ([3]; week 16): statistically significant difference
PASI75 [4, 10]: 33.3%
PASI mean cfb [4, 10]: −5.5
PASI75 [4, 11]: 45.2%
PASI mean cfb [4, 11]: −6.3
effect on enthesitis compared with placebo [5]: improved enthesitis compared with placebo
MDA ([6]; Week 12): 21.5%
MDA ([6]; Week 16): 23.1%

Nc1nc2cccc(-c3ccc(CN4CCS(=O)(=O)CC4)cc3)n2n1 [compound II]
abundance, fold more abundant than the parent compound [7]: about 10 fold
potency on JAK1 signaling, fold less potent than parent compound [8]: approximately 20 fold

C[C@@H]1CCN(C(=O)CC#N)C[C@@H]1N(C)c1ncnc2[nH]ccc12 [tofacitinib]
ACR20 response rate ([9]; month 3, dosed at 5 mg): 50%
ACR20 response rate ([9]; month 3, dosed at 10 mg): 61%
